Molecular target: KRAS (aa 1-169) G12C, C51S, C80L, C118S (Homo sapiens (Human), UniProt P01116, C118S/C51S/C80L/G12C)
Assay: Biochemical functional assay: SOS1-mediated nucleotide exchange of GDP-loaded KRAS G12C, binding to GST-cRaf RBD, FRET readout
Conditions: 3 hrs pre-incubation with compound at 24° C., SOS1, GTPyS
Experimental: Biochemical Functional Assay
The KRAS (aa 1-169) G12C, C51S, C80L, C118S with a His-tag was expressed, purified and loaded with GDP in house. All protein and substrate solutions were prepared in assay buffer containing 25 mM HEPES pH7.5, 10 mM MgCl2, and 0.01% Triton X-100. Purified GDP-loaded KRAS (aa 1-169) G12C, C51S, C80L, C118S protein was pre-incubated with a serially diluted compound at 24° C. for 3 hrs. Purified SOS1 (aa 564-1049) protein, GTPyS (Sigma) and GST-cRaf RBD (aa 1-149) were then added to each well and incubated at 24° C. for additional 3 hrs. […] Following the incubation, Mab Anti-6HIS-T cryptate (Cisbio) and Mab Anti GST-XL665 (Cisbio) were added and further incubated at 24° C. for 3 hrs. The binding interaction between active GTPyS KRAS G12C and GST-cRaf RBD brings the Tb and XL665 into close proximity enabling an increased FRET signal (Ex337 nm, Em665 nm/620 nm). The inhibition percentage of nucleotide exchange reaction in presence of increasing concentrations of compounds was calculated based on the ratio of fluorescence at 665 nm to that at 620 nm detected on a BMG PHERAstar FSX instrument. The IC50 value of each compound was calculated from fitting the data to the four-parameter logistic model by Dotmatics.

[1] = inhibition of nucleotide exchange

Sequence of KRAS (aa 1-169) G12C, C51S, C80L, C118S (P01116 other isoform, or with tags, fused parts or gaps G12C/C51S/C80L/C118S): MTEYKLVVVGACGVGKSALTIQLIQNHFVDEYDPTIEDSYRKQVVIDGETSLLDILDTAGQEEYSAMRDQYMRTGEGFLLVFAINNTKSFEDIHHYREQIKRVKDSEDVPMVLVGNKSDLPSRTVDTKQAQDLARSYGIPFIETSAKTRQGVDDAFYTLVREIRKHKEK

## C=CC(=O)N1CCN(c2ncnc3cc(-c4cc(F)cc5[nH]ncc45)c4c(c23)OCCC4)C[C@@H]1CC#N [Compound A16, (S)-2-(1-acryloyl-4-(5-(6-fluoro-1H-indazol-4-yl)-3,4-dihydro-2H-pyrano[2,3-f]quinazolin-10-yl)piperazin-2-yl)acetonitrile]
[1]
  IC50: 0.0898 µM

## C=CC(=O)N1CCN(c2ncnc3cc(-c4c(Cl)c(F)cc5[nH]ncc45)c4c(c23)OCCC4)C[C@@H]1CC#N [Compound A17, 2-((2S)-1-acryloyl-4-(5-(5-chloro-6-fluoro-1H-indazol-4-yl)-3,4-dihydro-2H-pyrano[2,3-f]quinazolin-10-yl)piperazin-2-yl)acetonitrile]
[1]
  IC50: 0.0317 µM

## C=CC(=O)N1CCN(c2ncnc3cc(-c4cc(C(F)(F)F)cc5[nH]ncc45)c4c(c23)OCCC4)C[C@@H]1CC#N [Compound A18, (S)-2-(1-acryloyl-4-(5-(6-(trifluoromethyl)-1H-indazol-4-yl)-3,4-dihydro-2H-pyrano[2,3-f]quinazolin-10-yl)piperazin-2-yl)acetonitrile]
[1]
  IC50: 0.0378 µM

## C=CC(=O)N1CCN(c2ncnc3cc(-c4c(Cl)c(F)cc5[nH]ncc45)c4c(c23)OCCC4)CC1 [Compound A19, 1-(4-(5-(5-chloro-6-fluoro-1H-indazol-4-yl)-3,4-dihydro-2H-pyrano[2,3-f]quinazolin-10-yl)piperazin-1-yl)prop-2-en-1-one]
[1]
  IC50: 0.691 µM

## C=CC(=O)N1CCN(c2ncnc3cc(-c4c(Cl)c(C)cc5[nH]ncc45)c4c(c23)OCCC4)C[C@@H]1CC#N [Compound A20, 2-((2S)-1-acryloyl-4-(5-(5-chloro-6-methyl-1H-indazol-4-yl)-3,4-dihydro-2H-pyrano[2,3-f]quinazolin-10-yl)piperazin-2-yl)acetonitrile]
[1]
  IC50: 0.0149 µM

## C=CC(=O)N1CCN(c2ncnc3cc(-c4ccc(O)c5ccccc45)c4c(c23)OCCC4)C[C@@H]1CC#N [Compound A21, (S)-2-(1-acryloyl-4-(5-(4-hydroxynaphthalen-1-yl)-3,4-dihydro-2H-pyrano[2,3-f]quinazolin-10-yl)piperazin-2-yl)acetonitrile]
[1]
  IC50: 0.005 µM

## C=CC(=O)N1CCN(c2ncnc3cc(-c4cnc(N)cc4C(F)(F)F)c4c(c23)OCCC4)C[C@@H]1CC#N [Compound A22, (S)-2-(1-acryloyl-4-(5-(6-amino-4-(trifluoromethyl)pyridin-3-yl)-3,4-dihydro-2H-pyrano[2,3-f]quinazolin-10-yl)piperazin-2-yl)acetonitrile]
[1]
  IC50: 0.256 µM

## C=C(F)C(=O)N1CCN(c2ncnc3cc(-c4c(Cl)c(C)cc5[nH]ncc45)c4c(c23)OCCC4)C[C@@H]1CC#N [Compound A23, 2-((2S)-4-(5-(5-chloro-6-methyl-1H-indazol-4-yl)-3,4-dihydro-2H-pyrano[2,3-f]quinazolin-10-yl)-1-(2-fluoroacryloyl)piperazin-2-yl)acetonitrile]
[1]
  IC50: 0.346 µM

## C=CC(=O)N1CCN(c2ncnc3cc(-c4c(C)cccc4C)c4c(c23)OCCC4)C[C@@H]1CC#N [Compound A24, (S)-2-(1-acryloyl-4-(5-(2,6-dimethylphenyl)-3,4-dihydro-2H-pyrano[2,3-f]quinazolin-10-yl)piperazin-2-yl)acetonitrile]
[1]
  IC50: 0.262 µM

## C=CC(=O)N1CCN(c2ncnc3cc(-c4c(C)c(C)cc5[nH]ncc45)c4c(c23)OCCC4)C[C@@H]1CC#N [Compound A25, 2-((2S)-1-acryloyl-4-(5-(5,6-dimethyl-1H-indazol-4-yl)-3,4-dihydro-2H-pyrano[2,3-f]quinazolin-10-yl)piperazin-2-yl)acetonitrile]
[1]
  IC50: 0.0155 µM

## C=CC(=O)N1CCN(c2ncnc3cc(-c4c(C)c(Cl)cc5[nH]ncc45)c4c(c23)OCCC4)C[C@@H]1CC#N [Compound A26, 2-((2S)-1-acryloyl-4-(5-(6-chloro-5-methyl-1H-indazol-4-yl)-3,4-dihydro-2H-pyrano[2,3-f]quinazolin-10-yl)piperazin-2-yl)acetonitrile]
[1]
  IC50: 0.0099 µM

## C=CC(=O)N1CCN(c2ncnc3cc(-c4ccc(O)c(Cl)c4)c4c(c23)OCCC4)C[C@@H]1CC#N [Compound A27, (S)-2-(1-acryloyl-4-(5-(3-chloro-4-hydroxyphenyl)-3,4-dihydro-2H-pyrano[2,3-f]quinazolin-10-yl)piperazin-2-yl)acetonitrile]
Bound in uM
  IC50: > 10 µM

## C=CC(=O)N1CCN(c2ncnc3cc(-c4ccc(O)c(F)c4)c4c(c23)OCCC4)C[C@@H]1CC#N [Compound A28, (S)-2-(1-acryloyl-4-(5-(3-fluoro-4-hydroxyphenyl)-3,4-dihydro-2H-pyrano[2,3-f]quinazolin-10-yl)piperazin-2-yl)acetonitrile]
Bound in uM
  IC50: > 10 µM

## C=CC(=O)N1CCN(c2ncnc3cc(-c4c(Cl)c(Cl)cc5[nH]ncc45)c4c(c23)OCCC4)C[C@@H]1CC#N [Compound A29, 2-((2S)-1-acryloyl-4-(5-(5,6-dichloro-1H-indazol-4-yl)-3,4-dihydro-2H-pyrano[2,3-f]quinazolin-10-yl)piperazin-2-yl)acetonitrile]
[1]
  IC50: 0.0093 µM

## C=C(F)C(=O)N1CCN(c2ncnc3cc(-c4c(C)cccc4F)c4c(c23)OCCC4)C[C@@H]1CC#N [Compound A30, 2-((2S)-4-(5-(2-fluoro-6-methylphenyl)-3,4-dihydro-2H-pyrano[2,3-f]quinazolin-10-yl)-1-(2-fluoroacryloyl)piperazin-2-yl)acetonitrile]
[1]
  IC50: 1.96 µM

## C=CC(=O)N1CCN(c2ncnc3cc(-c4cccc(C)c4F)c4c(c23)OCCC4)C[C@@H]1CC#N [Compound A31, (S)-2-(1-acryloyl-4-(5-(2-fluoro-3-methylphenyl)-3,4-dihydro-2H-pyrano[2,3-f]quinazolin-10-yl)piperazin-2-yl)acetonitrile]
[1]
  IC50: 0.137 µM

## C=CC(=O)N1CCN(c2ncnc3cc(-c4cccc5cccc(Cl)c45)c4c(c23)OCCC4)C[C@@H]1CC#N [Compound A32, (S)-2-(1-acryloyl-4-(5-(8-chloronaphthalen-1-yl)-3,4-dihydro-2H-pyrano[2,3-f]quinazolin-10-yl)piperazin-2-yl)acetonitrile]
[1]
  IC50: 0.012 µM

## C=CC(=O)N1CCN(c2ncnc3cc(-c4c(C)cccc4F)c4c(c23)OCCC4)C[C@@H]1CC#N [Compound A33, 2-((2S)-1-acryloyl-4-(5-(2-fluoro-6-methylphenyl)-3,4-dihydro-2H-pyrano[2,3-f]quinazolin-10-yl)piperazin-2-yl)acetonitrile]
[1]
  IC50: 0.233 µM

## C=CC(=O)N1CCN(c2ncnc3cc(-c4c(F)cccc4F)c4c(c23)OCCC4)C[C@@H]1CC#N [Compound A34, (S)-2-(1-acryloyl-4-(5-(2,6-difluorophenyl)-3,4-dihydro-2H-pyrano[2,3-f]quinazolin-10-yl)piperazin-2-yl)acetonitrile]
[1]
  IC50: 2.11 µM

## C=CC(=O)N1CCN(c2nc(OC[C@@H]3CCCN3C)nc3cc(-c4c(Cl)c(C)cc5[nH]ncc45)c4c(c23)OCCC4)C[C@@H]1CC#N [Compound B1, 2-((2S)-1-acryloyl-4-(5-(5-chloro-6-methyl-1H-indazol-4-yl)-8-(((S)-1-methylpyrrolidin-2-yl)methoxy)-3,4-dihydro-2H-pyrano[2,3-f]quinazolin-10-yl)piperazin-2-yl)acetonitrile]
[1]
  IC50: 0.003 µM

## C=CC(=O)N1CCN(c2nc(N3CC(N(C)C)C3)nc3cc(-c4c(F)cccc4F)c4c(c23)OCCC4)CC1 [Compound B2, 1-(4-(5-(2,6-difluorophenyl)-8-(3-(dimethylamino)azetidin-1-yl)-3,4-dihydro-2H-pyrano[2,3-f]quinazolin-10-yl)piperazin-1-yl)prop-2-en-1-one]
[1]
  IC50: 2.24 µM

## C=CC(=O)N1CCN(c2nc(O[C@H]3CN(C)C[C@@H]3OC)nc3cc(-c4c(Cl)c(C)cc5[nH]ncc45)c4c(c23)OCCC4)C[C@@H]1CC#N [Compound B3, 2-((2S)-1-acryloyl-4-(5-(5-chloro-6-methyl-1H-indazol-4-yl)-8-(((3S,4S)-4-methoxy-1-methylpyrrolidin-3-yl)oxy)-3,4-dihydro-2H-pyrano[2,3-f]quinazolin-10-yl)piperazin-2-yl)acetonitrile]
[1]
  IC50: 0.0065 µM

## C=CC(=O)N1CCN(c2nc(N3CC(N(C)C)C3)nc3cc(-c4c(Cl)c(C)cc5[nH]ncc45)c4c(c23)OCCC4)C[C@@H]1CC#N [Compound B4, 2-((2S)-1-acryloyl-4-(5-(5-chloro-6-methyl-1H-indazol-4-yl)-8-(3-(dimethylamino)azetidin-1-yl)-3,4-dihydro-2H-pyrano[2,3-f]quinazolin-10-yl)piperazin-2-yl)acetonitrile]
[1]
  IC50: 0.0047 µM

## C=CC(=O)N1CCN(c2nc(OCCN(C)C)nc3cc(-c4c(Cl)c(C)cc5[nH]ncc45)c4c(c23)OCCC4)C[C@@H]1CC#N [Compound B5, 2-((2S)-1-acryloyl-4-(5-(5-chloro-6-methyl-1H-indazol-4-yl)-8-(2-(dimethylamino)ethoxy)-3,4-dihydro-2H-pyrano[2,3-f]quinazolin-10-yl)piperazin-2-yl)acetonitrile]
[1]
  IC50: 0.0079 µM

## C=CC(=O)N1CCN(c2nc(OC[C@@H]3CCCN3C)nc3cc(-c4c(Cl)c(C)cc5[nH]ncc45)c4c(c23)OCCC4)CC1 [Compound B6, 1-(4-(5-(5-chloro-6-methyl-1H-indazol-4-yl)-8-(((S)-1-methylpyrrolidin-2-yl)methoxy)-3,4-dihydro-2H-pyrano[2,3-f]quinazolin-10-yl)piperazin-1-yl)prop-2-en-1-one]
[1]
  IC50: 0.034 µM

Reference: patent US20240166660A1, “KRAS G12C INHIBITORS” (BeiGene Switzerland GmbH, priority 2021, published 2024)
